± gives the expanded uncertainty stated by the source.

A short description of this series: molar enthalpy of vaporization or sublimation. Particulars: 298.15 K; Liquid; Static calorimetry.

Consider `COC(=O)c1cccn1C` [methyl 1-methyl-2-pyrrolecarboxylate], for which the molar enthalpy stood at 14.1 ± 0.287 kcal/mol.

The values are drawn from the NIST ThermoML archive (doi:10.1016/j.jct.2013.08.004).
